Where “and” joins values, the source holds several entries; their conditions need not be identical. Equal entries are not always repeated. Structures can show the parent of a compound that is named as a salt. Where two headings read alike, the source gives them in different places.
Tests used:
MCL = test system: MCL; set-up: method as in PMID 24615778; conditions: n = 40; cited from earlier work
[1] = test system: indolent non-Hodgkin lymphoma (iNHL); set-up: method as in PMID 24615776; conditions: cited from earlier work
p110δ = test system: p110δ; set-up: method as in PMID 20959606; conditions: cited from earlier work
advanced solid tumors = conditions: ref unpublished information, personal communication with Wei Mao on January 1, 2013, cited from earlier work; for Maximum tolerated dose (MTD): single agent, postprandial
PI3K p110β = conditions: read-out: IC50 against PI3K isoform p110β; ref unpublished information, personal communication with Wei Mao on January 1, 2013; cited from earlier work
PDGFR β = test system: PDGFR β; set-up: method as in earlier work; conditions: ref unpublished information, personal communication with Wei Mao on January 1, 2013; read-out: IC50, receptor tyrosine kinase PDGFR β; cited from earlier work
PI3K p110δ = conditions: read-out: IC50 against PI3K isoform p110δ; ref unpublished information, personal communication with Wei Mao on January 1, 2013; cited from earlier work
KDR = test system: KDR; set-up: method as in earlier work; conditions: ref unpublished information, personal communication with Wei Mao on January 1, 2013; read-out: IC50, receptor tyrosine kinase KDR; cited from earlier work
CYP1A2 enzyme = conditions: preliminary study; cited from earlier work
PI3K p110γ = test system: PI3K p110γ; set-up: method as in earlier work; conditions: ref unpublished information, personal communication with Wei Mao on January 1, 2013; read-out: IC50 against PI3K isoform p110γ; cited from earlier work
[2] = set-up: method as in earlier work; conditions: toxicology experiments; ref unpublished information, personal communication with Wei Mao on January 1, 2013; cited from earlier work
PI3K p110α = conditions: read-out: IC50 against PI3K isoform p110α; ref unpublished information, personal communication with Wei Mao on January 1, 2013; cited from earlier work
[3] = test system: vascular endothelial cells lumen; set-up: method as in earlier work; conditions: ref unpublished information, personal communication with Wei Mao on January 1, 2013; read-out: IC50, formation of the vascular endothelial cells lumen; cited from earlier work
[4] = test system: cell lines with drug resistance mediated by p170/MDR-1 / p-Glycoprotein; set-up: method as in earlier work; conditions: p170/MDR-1 / p-Glycoprotein mediated resistance; ref unpublished information, personal communication with Wei Mao on January 1, 2013; cited from earlier work
[5] = test system: relapsed or refractory non-Hodgkin's lymphoma; experiment: Phase I study, antitumor activity (response, PFS); type: in vivo, human
Protocol: This was a phase I open label, dose-escalation study whose primary objective was to characterize the safety of XC-302 in adult Chinese patients with advanced lymphoma administered on a 28-day cycle. Others were to determine the pharmacokinetics (PK) characteristics and anti-tumor activity. The anti-tumor effects of XC-302 were evaluated every 2 cycles with the Standardized Response Criteria of the National Cancer Institute International Working Group (IWG). Efficacy evaluation for CLL was on account of IWCLL criteria while for NHL, it was analyzed by IWG response criteria. Patients with stable disease or partial remission were allowed to continue therapy until progressive disease or toxicity was observed.

[6] = test system: AKT phosphorylation mediated by EGFR; set-up: method as in earlier work; conditions: ref unpublished information, personal communication with Wei Mao on January 1, 2013; cited from earlier work
[7] = set-up: method as in earlier work; conditions: pre-clinical; ref unpublished information, personal communication with Wei Mao on January 1, 2013; cited from earlier work
[8] = test system: xenografts with cancer of the colon, stomach, or lung; set-up: method as in earlier work; conditions: nude mice, ref unpublished information, personal communication with Wei Mao on January 1, 2013; cited from earlier work
[9] = Phase I study, pharmacokinetics of XC-302 in patients; type: in vivo, human
Protocol: Detailed pharmacokinetic were analyzed by taking blood samples before (within 1 hour) and after (every 2 hours) dosing on days 1, 28 of cycle 1. Plasma concentrations of XC-302 were measured with a validated liquid chromatography assay. Pharmacokinetic measures, such as the maximum plasma concentration (Cmax) and area under the time-concentration curve (AUC), were estimated in every patient.

SMILES: CC[C@H](Nc1ncnc2[nH]cnc12)c1nc2cccc(F)c2c(=O)n1-c1ccccc1 [Idelalisib]
- Asymptomatic grade 3 or greater serum transaminase elevations (MCL): 35%
- Asymptomatic grade 3 or greater serum transaminase elevations ([1]; iNHL, n = 64): 25%
- Response rate ([1]; marginal-zone lymphoma subtype): 33%

SMILES: c1cnc2ccc(Nc3nc(NC4CC4)c4nc[nH]c4n3)cc2c1 [XC-302, Puquitinib Mesylate]
- Disease control rate (advanced solid tumors; advanced solid tumors): 52.5%
- Oral bioavailability (advanced solid tumors; clinical PK monitoring): good oral bioavailability
- Maximum tolerated dose (MTD) (advanced solid tumors; continuous daily schedule): 75 mg
- Maximum tolerated dose (MTD) (advanced solid tumors; twice daily (BID)): 50 mg
- IC50 (PI3K p110β): 699 nM
- IC50 (PDGFR β): 1000 nM
- ALT, increased, adverse event, any grade (25 mg BID, n = 3): 2 n
- Anemia, adverse event, any grade (25 mg BID, n = 3): 1 n
- Creatinine, increased, adverse event, any grade (25 mg BID, n = 3): 1 n
- Fecal occult blood, adverse event, any grade (25 mg BID, n = 3): 1 n
- Hematuresis, adverse event, any grade (25 mg BID, n = 3): 1 n
- Leukopenia, adverse event, any grade (25 mg BID, n = 3): 1 n
- Thrombocytopenia, adverse event, any grade (25 mg BID, n = 3): 1 n
- ALT, increased, adverse event, any grade (37.5 mg BID, n = 9): 5 n
- AST, increased, adverse event, any grade (37.5 mg BID, n = 9): 1 n
- Anemia, adverse event, any grade (37.5 mg BID, n = 9): 4 n
- Anemia, adverse event, grade ≥3 (37.5 mg BID, n = 9): 1 n
- Constipation, adverse event, any grade (37.5 mg BID, n = 9): 1 n
- Fecal occult blood, adverse event, any grade (37.5 mg BID, n = 9): 2 n
- Hematuresis, adverse event, any grade (37.5 mg BID, n = 9): 1 n
- Leukopenia, adverse event, any grade (37.5 mg BID, n = 9): 1 n
- Nausea, adverse event, any grade (37.5 mg BID, n = 9): 1 n
- Neutropenia, adverse event, any grade (37.5 mg BID, n = 9): 2 n
- Proteinuria, adverse event, any grade (37.5 mg BID, n = 9): 1 n
- Pyrexia, adverse event, any grade (37.5 mg BID, n = 9): 2 n
- S-T-segment change, adverse event, any grade (37.5 mg BID, n = 9): 1 n
- Thrombocytopenia, adverse event, any grade (37.5 mg BID, n = 9): 2 n
- Thrombocytopenia, adverse event, grade ≥3 (37.5 mg BID, n = 9): 1 n
- URI, adverse event, any grade (37.5 mg BID, n = 9): 2 n
- Patients with dose-limiting toxicity (grade 3 transaminases elevation) (50 mg BID group): Four
- ALT, increased, adverse event, any grade (50 mg BID, n = 9): 7 n
- ALT, increased, adverse event, grade ≥3 (50 mg BID, n = 9): 4 n
- AST, increased, adverse event, any grade (50 mg BID, n = 9): 6 n
- AST, increased, adverse event, grade ≥3 (50 mg BID, n = 9): 1 n
- Anemia, adverse event, any grade (50 mg BID, n = 9): 2 n
- Arrhythmia, adverse event, any grade (50 mg BID, n = 9): 1 n
- Constipation, adverse event, any grade (50 mg BID, n = 9): 1 n
- Creatinine, increased, adverse event, any grade (50 mg BID, n = 9): 1 n
- Diarrhea, adverse event, any grade (50 mg BID, n = 9): 2 n
- Fecal occult blood, adverse event, any grade (50 mg BID, n = 9): 1 n
- Hematuresis, adverse event, any grade (50 mg BID, n = 9): 1 n
- Leukopenia, adverse event, any grade (50 mg BID, n = 9): 2 n
- Nausea, adverse event, any grade (50 mg BID, n = 9): 1 n
- Neutropenia, adverse event, any grade (50 mg BID, n = 9): 3 n
- Neutropenia, adverse event, grade ≥3 (50 mg BID, n = 9): 2 n
- Peripheral nerve toxicity, adverse event, any grade (50 mg BID, n = 9): 1 n
- Pyrexia, adverse event, any grade (50 mg BID, n = 9): 2 n
- Rash, adverse event, any grade (50 mg BID, n = 9): 2 n
- S-T-segment change, adverse event, any grade (50 mg BID, n = 9): 1 n
- Thrombocytopenia, adverse event, any grade (50 mg BID, n = 9): 1 n
- Thrombocytopenia, adverse event, grade ≥3 (50 mg BID, n = 9): 1 n
- URI, adverse event, any grade (50 mg BID, n = 9): 2 n
- DLT events (25-mg or 37.5-mg doses): No DLT events
- ALT, increased, adverse event, any grade (Overall): 14 n
- ALT, increased, adverse event, grade ≥3 (Overall): 4 n
- AST, increased, adverse event, any grade (Overall): 7 n
- AST, increased, adverse event, grade ≥3 (Overall): 1 n
- Anemia, adverse event, any grade (Overall): 7 n
- Arrhythmia, adverse event, any grade (Overall): 1 n
- Constipation, adverse event, any grade (Overall): 2 n
- Creatinine, increased, adverse event, any grade (Overall): 2 n
- Diarrhea, adverse event, any grade (Overall): 2 n
- Fecal occult blood, adverse event, any grade (Overall): 4 n
- Hematuresis, adverse event, any grade (Overall): 3 n
- Leukopenia, adverse event, any grade (Overall): 4 n
- Nausea, adverse event, any grade (Overall): 2 n
- Neutropenia, adverse event, any grade (Overall): 5 n
- Neutropenia, adverse event, grade ≥3 (Overall): 2 n
- Peripheral nerve toxicity, adverse event, any grade (Overall): 1 n
- Proteinuria, adverse event, any grade (Overall): 1 n
- Pyrexia, adverse event, any grade (Overall): 4 n
- Rash, adverse event, any grade (Overall): 2 n
- S-T-segment change, adverse event, any grade (Overall): 2 n
- Thrombocytopenia, adverse event, any grade (Overall): 4 n
- Thrombocytopenia, adverse event, grade ≥3 (Overall): 2 n
- URI, adverse event, any grade (Overall): 4 n
- Anemia, frequency of AE (all 21 patients): 33.3%
- Creatinine elevation, frequency of AE (all 21 patients): 9.5%
- Elevated alanine transaminase (ALT), frequency of AE (all 21 patients): 66.7%
- Elevated aspartate transaminase (AST), frequency of AE (all 21 patients): 33.3%
- Fecal occult blood, frequency of AE (all 21 patients): 19.0%
- Hematuresis, frequency of AE (all 21 patients): 14.3%
- Myocardial ischemia, frequency of AE (all 21 patients): 9.5%
- Neutropenia, frequency of AE (all 21 patients): 23.8%
- Rash, frequency of AE (all 21 patients): 9.5%
- Thrombocytopenia, frequency of AE (all 21 patients): 19.0%
- Upper respiratory infection (URI), frequency of AE (all 21 patients): 19.0%
- Drug-related hyperglycemia (all patients): no XC302-related hyperglycemia
- Maximum tolerated dose (MTD) (twice a day, 28-day cycle, NHL patients): 50 mg
- IC50 (PI3K p110δ): 2.8 nM
- IC50 (KDR): 1000 nM
- Inhibition of CYP1A2 enzyme activity (CYP1A2 enzyme): irreversibly inhibited
- IC50 (PI3K p110γ): 89.7 nM
- Toxicity [2]: low toxicity
- IC50 (PI3K p110α): 767 nM
- IC50 [3]: 100 nM
- Sensitivity of drug-resistant cell lines [4]: similarly sensitive
- Complete response ([5]; 25 mg BID, n = 3): 0 n
- Minor response ([5]; 25 mg BID, n = 3): 0 n
- Partial response ([5]; 25 mg BID, n = 3): 0 n
- Progressive disease ([5]; 25 mg BID, n = 3): 0 n
- Stable disease ([5]; 25 mg BID, n = 3): 3 n
- Complete response ([5]; 37.5 mg BID, n = 9): 0 n
- Minor response ([5]; 37.5 mg BID, n = 9): 0 n
- Partial response ([5]; 37.5 mg BID, n = 9): 0 n
- Progressive disease ([5]; 37.5 mg BID, n = 9): 8 n
- Stable disease ([5]; 37.5 mg BID, n = 9): 1 n
- Complete response ([5]; 50 mg BID (n = 7)): 0 n
- Minor response ([5]; 50 mg BID (n = 7)): 1 n
- Overall response rate ([5]; 50 mg BID (n = 7)): 2 n
- Partial response ([5]; 50 mg BID (n = 7)): 1 n
- Progressive disease ([5]; 50 mg BID (n = 7)): 3 n
- Stable disease ([5]; 50 mg BID (n = 7)): 2 n
- Complete response ([5]; All (n = 21; 19 evaluable)): 0 n
- Minor response ([5]; All (n = 21; 19 evaluable)): 1 n
- Overall response rate ([5]; All (n = 21; 19 evaluable)): 2 n
- Partial response ([5]; All (n = 21; 19 evaluable)): 1 n
- Progressive disease ([5]; All (n = 21; 19 evaluable)): 11 n
- Stable disease ([5]; All (n = 21; 19 evaluable)): 6 n
- Progression free survival (PFS), median (95% CI) ([5]; all evaluable patients): 1.9 (95% CI, 1.7 to 2.0) months and 1.9 months
- Duration of response, median (range) ([5]; printed as for all 19 patients): 7.1 (6.9 to 7.3) months
- Time to response ([5]; the two responding patients, individual values): 1.8 months and 1.84 months
- IC50 [6]: 100 nM
- Absolute bioavailability [7]: high absolute bioavailability
- Absorption [7]: rapidly absorbed
- Anti-tumor efficacy in xenografts [8]: obvious anti-tumor efficacy
- Pharmacokinetic response (AUClast and Cmax vs dose) ([9]; 25 mg to 50 mg, days 1 and 28): linear
- Tmax ([9]; human, serum, oral, 25 to 50 mg BID, patients, read-out: Time of peak serum concentration after administration): ~4 h

— article PMC4791286, “Puquitinib mesylate, an inhibitor of phosphatidylinositol 3-kinase p110δ, for treating relapsed or refractory non-Hodgkin's lymphoma” (Oncotarget, 2015)
